“And” between values parts separate entries of the source, which are not always exact repeats. Equal entries are not always repeated. Where two headings read alike, the source gives them in different places.
How the values were obtained:
human DPP1 enzyme = human DPP1 enzyme (Homo sapiens, UniProt P53634); assay: Human DPP1 Enzyme IC50 Assay; type: biochemical; design: was first proteolytically processed into its mature form using recombinant human cathepsin L; purchased R&D Systems
How it was run: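 IC50 came from a four-parameter fit of activity relative to no-compound control, with fluorescence (Ex 350/Em 450 nm) read every 5 min for 90 min at 37 °C using 400 μM final H-Gly-Arg-AMC. Cathepsin L-matured human recombinant DPP1 was preincubated 10 min with compound at pH 6.0 (MES, DTT, 1% DMSO).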

DPP1 in HL-60 cells = DPP1 in HL-60 cells (Homo sapiens, UniProt P53634); assay: DPP1 Cell IC50 assay; type: cell-based; design: host or cells: HL-60 cells; details: 60 min pre-incubation, H-Gly-Phe-AFC substrate, average of n runs
Sequence of DPP1 in HL-60 cells (P53634 25-463): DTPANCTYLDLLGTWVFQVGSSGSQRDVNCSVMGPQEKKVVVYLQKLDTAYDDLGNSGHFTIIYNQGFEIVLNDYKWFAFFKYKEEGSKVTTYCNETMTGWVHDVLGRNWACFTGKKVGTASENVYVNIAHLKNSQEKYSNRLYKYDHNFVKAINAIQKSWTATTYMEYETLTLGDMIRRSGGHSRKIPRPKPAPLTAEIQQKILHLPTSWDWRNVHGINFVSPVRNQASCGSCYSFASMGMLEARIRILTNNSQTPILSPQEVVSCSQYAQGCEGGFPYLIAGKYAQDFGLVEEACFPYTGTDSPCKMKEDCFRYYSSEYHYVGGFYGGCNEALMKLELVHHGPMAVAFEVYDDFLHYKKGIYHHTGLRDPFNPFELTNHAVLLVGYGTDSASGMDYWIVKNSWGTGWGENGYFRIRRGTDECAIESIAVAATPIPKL
How it was run: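 Intracellular DPP1 activity read as AFC fluorescence (Ex/Em 400/505 nm) after 30 min with H-Gly-Phe-AFC (500 μM stock), following 60 min compound pre-incubation at 37° C with HL-60 cells at 5×10^5 live cells per mL in PBS. IC50 by 4-parameter fit against DMSO-only controls.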

active mouse DPP1 enzyme = biological target: T1, active mouse DPP1 enzyme (Mus musculus, UniProt P97821); assay: Mouse DPP1 Enzyme IC50 Assay; type: biochemical
T1 construct: Each subunit is composed of an N-terminal fragment, a heavy chain and a light chain; purchased R&D Systems
T1 sequence (P97821 25-134 limits assumed): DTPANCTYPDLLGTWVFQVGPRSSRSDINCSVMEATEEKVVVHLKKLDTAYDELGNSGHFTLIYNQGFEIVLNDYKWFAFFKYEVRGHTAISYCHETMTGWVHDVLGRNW
T1 sequence (P97821 231-393 limits assumed): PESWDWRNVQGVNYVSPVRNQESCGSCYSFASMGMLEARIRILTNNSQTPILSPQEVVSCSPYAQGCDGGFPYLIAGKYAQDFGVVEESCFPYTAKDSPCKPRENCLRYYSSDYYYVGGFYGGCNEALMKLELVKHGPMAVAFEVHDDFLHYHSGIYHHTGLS
T1 sequence (P97821 394-462 limits assumed): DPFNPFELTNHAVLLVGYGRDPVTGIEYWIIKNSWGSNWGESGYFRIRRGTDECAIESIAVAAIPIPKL
Method: Example 96: Mouse DPP1 Enzyme IC50 Assay
Test articles were applied to active mouse DPP1 enzyme (R&D Systems; Minneapolis, MN) in Assay Buffer (50 mM MES pH 5.5, 50 mM NaCl, 5 mM DTT) in a total reaction volume of 125 μL. 25 μL of compound in Assay Buffer plus […] was first added to 50 μL of active mouse DPP1 enzyme at a concentration of 62.5 pg/μL and allowed to pre-incubate for 10 minutes at 37° C. after which 50 μL of […] H-Gly-Arg-AMC substrate (Bachem; St. Torrance, CA) was added, giving final substrate concentration of 400 µM and a final DMSO concentration of […]. Substrate cleavage was measured for 90 minutes at 37° C., with fluorescence at Excitation/Emission 350/450 nm measured every 5 minutes. DPP1 concentration was interpolated based on its activity relative to a standard curve of recombinant active mouse DPP enzyme. IC50 values for each compound were calculated via the XLFit (IDBS Version 5.3.1.3) Add-On to Microsoft Excel using the four parameter fit equation y=(A+((B−A)/(1+((C/x)^D)))), which appears as equation number 205 (4 Parameter Logistic Model or Sigmoidal Dose-Response Model) in XLFit. Default constraints were used for each Parameter. IC50 was defined as the compound concentration at which 50% of enzyme activity was inhibited when compared to the no-compound control.
In Table 2, *** represent average IC50≤5 nM, ** represents average IC50 in the range of 5-20 nM, and * represents average IC50 in the range of ≥20 nM, where the designations were made solely based on the average value without taking into account of the standard deviations.

[1] = activated recombinant human DPP1, 400 μM H-Gly-Arg-AMC, 10 minutes pre-incubation at 37° C., pH 6.0, average of n runs, read-out: Avg. IC50 (Human DPP1 enzyme IC50 value ranges)
[2] = read-out: Avg. IC50 (DPP1 Cell IC50 value ranges)
[3] = active mouse DPP1 enzyme, H-Gly-Arg-AMC substrate, 10 minutes pre-incubation at 37° C., pH 5.5, average of n runs, read-out: Avg. IC50 (Mouse DPP1 enzyme IC50 value ranges)

Sequence of human DPP1 enzyme (P53634 25-134 limits assumed): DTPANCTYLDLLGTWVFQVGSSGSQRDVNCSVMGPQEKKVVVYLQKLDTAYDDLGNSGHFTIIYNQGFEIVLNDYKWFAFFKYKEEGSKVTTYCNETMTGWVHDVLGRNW
Sequence of human DPP1 enzyme (P53634 231-394 limits assumed): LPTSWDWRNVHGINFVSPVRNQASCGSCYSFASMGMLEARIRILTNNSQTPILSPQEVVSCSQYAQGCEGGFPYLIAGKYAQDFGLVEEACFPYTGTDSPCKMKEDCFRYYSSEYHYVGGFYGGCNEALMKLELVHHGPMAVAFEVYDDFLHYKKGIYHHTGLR
Sequence of human DPP1 enzyme (P53634 395-463 limits assumed): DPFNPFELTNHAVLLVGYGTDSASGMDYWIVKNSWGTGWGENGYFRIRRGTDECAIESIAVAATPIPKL

| Compound | IC50 (human DPP1 enzyme; [1]) | IC50 (DPP1 in HL-60 cells; [2]) [nM] | IC50 (active mouse DPP1 enzyme; [3]) [nM] | IC50 (human DPP1 enzyme) [nM] | IC50 (DPP1 in HL-60 cells; Avg. IC50 (DPP1 Cell IC50 value ranges)) [nM] | IC50 (active mouse DPP1 enzyme) [nM] |
| --- | --- | --- | --- | --- | --- | --- |
| Cn1nc(F)c2ccc(-c3ccc(C[C@@H](C#N)NC(=O)[C@@H]4CNCCCO4)cc3)cc21 [Compound A1, (S)—N—((S)-1-cyano-2-(4-(3-fluoro-1-methyl-1H-indazol-6-yl)phenyl)ethyl)-1,4-oxazepane-2-carboxamide] | > 15 nM | > 2.5 | > 20 | – | – | – |
| Cc1cn2cc(-c3ccc(C[C@@H](C#N)NC(=O)[C@@H]4CNCCCCO4)c(F)c3)cc2c(C)n1 [Compound A28, (2S)—N-[(1S)-1-cyano-2-(4-{1,3-dimethylpyrrolo[1,2-a]pyrazin-7-yl}-2-fluorophenyl)ethyl]-1,4-oxazocane-2-carboxamide] | > 15 nM | 1 to 2.5 | > 20 | – | – | – |
| N#C[C@H](Cc1ccc(-c2ccc3c(n2)CCCN3)cc1)NC(=O)[C@@H]1CNCCCO1 [Compound A10, (2S)—N-[(1S)-1-cyano-2-[4-(5,6,7,8-tetrahydro-1,5-naphthyridin-2-yl)phenyl]ethyl]-1,4-oxazepane-2-carboxamide] | > 15 nM | > 2.5 | > 20 | – | – | – |
| CN1CCN(S(=O)(=O)c2ccc(-c3ccc(C[C@@H](C#N)NC(=O)[C@@H]4CNCCCO4)c(F)c3)cc2)CC1 [Compound 21, (2S)—N-[(1S)-1-cyano-2-[3-fluoro-4′-(4-methylpiperazin-1-ylsulfonyl)-[1,1′-biphenyl]-4-yl]ethyl]-1,4-oxazepane-2-carboxamide] | > 15 nM | > 2.5 | > 20 | – | – | – |
| CN1CCN(S(=O)(=O)c2ccc(-c3ccc(C[C@@H](C#N)NC(=O)[C@@H]4CNCCCO4)cc3)cc2)CC1 [Compound 20, (2S)—N-[(1S)-1-cyano-2-[4′-(4-methylpiperazin-1-ylsulfonyl)-[1,1′-biphenyl]-4-yl]ethyl]-1,4-oxazepane-2-carboxamide] | > 15 nM | > 2.5 | > 20 | – | – | – |
| N#C[C@H](Cc1cc2c(cc1F)-c1cc(C3COC3)c(F)cc1CO2)NC(=O)[C@@H]1CNCCCO1 [Compound B2, (2S)—N-{1-cyano-2-[2,8-difluoro-9-(oxetan-3-yl)-6H-benzo[c]chromen-3-yl]ethyl}-1,4-oxazepane-2-carboxamide] | – | – | – | 5 to 15 | 1 to 2.5 | 5 to 20 |
| N#Cc1ccc2c(c1)COc1cc(CC(C#N)NC(=O)[C@@H]3CNCCCCO3)c(F)cc1-2 (single isomer, unassigned) [Compound B9] | 5 to 15 nM and > 15 nM | 1 to 2.5 | 5 to 20 | – | – | – |
